The text below walks through data of patent US20260137699A1, “OXAZEPINE COMPOUNDS COMPRISING A 6-AZA MOIETY AND USES THEREOF” (Genentech, Inc., priority 2022, published 2026).

What all share (assay type): cell-based
One assay deals with HPAC cells. Briefly: HPAC 3D proliferation assay (CellTiter-Glo 3D). The note with it: Homo sapiens, 168 h, 3D culture, 7 days, read-out: HPAC CTG IC50. The procedure:
(§1) Compound potencies were assessed in proliferation assays conducted with SW620 and HPAC cell lines grown in 3D cultures. Cells were seeded into 96- or 384-well ultra-low attachment plates at 3000 or 1000 cells/well, respectively, in culture medium (RPMI-1640, 10% FBS, 2 mM L-glutamine). The plated cells were centrifuged briefly, allowed to rest for 30 minutes under ambient conditions, and cultured overnight at 37° C./5% C02 to initiate the formation of spheroids. Compound dilutions were prepared across a range of concentrations in DMSO and added to the appropriate wells of the assay plates with a 333-fold dilution into the culture medium. The plates were further incubated for 7 days. The quantity of viable cells was assessed using CellTiter-Glo 3D Cell Viability Assay (Promega). The detection reagent penetrates the spheroids and lyses the cells. The released ATP that was detected with luciferase and a luciferase substrate to generate a luminescent readout. […] The data points were fit to a 4-parameter logistic equation to determine IC50 values.

Another assay concerns pERK in SW620 cells. Nature of the assay: SW620 pERK assay. The note with it: Homo sapiens, SW-620, SW620.
A further assay relates to SW620 cells. Briefly: SW620 3D proliferation assay (CellTiter-Glo 3D). The following applies: Homo sapiens, SW-620, 168 h, SW620, 3D culture, 7 days, read-out: SW620 CTG IC50. Here is the method:
as §1

A further assay relates to H1975 cells. Briefly: H1975 CTG proliferation assay. The note with it: Homo sapiens, NCI-H1975, H1975.

Turning to `Cc1nc(N)c(Cl)c(-c2nc3c4c(nc(OC[C@@]56CCCN5C[C@H](F)C6)nc4c2F)N([C@H](C)c2cccnc2N)CCO3)c1C(F)(F)F` (atropisomer, axis not shown; (aS)) [Example 601a, 4-((R)-10-((R)-1-(2-aminopyridin-3-yl)ethyl)-4-fluoro-2-(((2R,7aS)-2-fluorotetrahydro-1H-pyrrolizin-7a(5H)-yl)methoxy)-9,10-dihydro-8H-7-oxa-1,3,6,10-tetraazacyclohepta[de]naphthalen-5-yl)-3-chloro-6-methyl-5-(trifluoromethyl)pyridin-2-amine], the IC50 amounted to 33.6 nM in the assay with HPAC cells and 2.34 nM in the assay with pERK in SW620 cells.

As for `Cc1nc(N)c(Cl)c(-c2nc3c4c(nc(OC[C@@]56CCCN5C[C@H](F)C6)nc4c2F)N([C@H](C)c2cccnc2N)CCO3)c1C(F)(F)F` (single isomer, unassigned) [Example 601b], the half-maximal inhibitory concentration (IC50) with SW620 cells turned out to be 9.3 nM; in the assay on H1975 cells, 80.2 nM; with HPAC cells, 86.7 nM; in the assay with pERK in SW620 cells it was 15.6 nM.

On to `Cc1c(F)c(N)cc(-c2nc3c4c(nc(OC[C@@H]5CC(F)(F)CN5C)nc4c2F)N([C@H](C)c2nccnc2N)CCO3)c1C(F)(F)F` [Example 8, 3-((R)-1-(5-(5-amino-4-fluoro-3-methyl-2-(trifluoromethyl)phenyl)-2-(((S)-4,4-difluoro-1-methylpyrrolidin-2-yl)methoxy)-4-fluoro-8,9-dihydro-10H-7-oxa-1,3,6,10-tetraazacyclohepta[de]naphthalen-10-yl)ethyl)pyrazin-2-amine], for which the IC50 in the assay with HPAC cells was no less than 2000 nM.

With `C[C@H](c1cccnc1N)N1CCOc2nc(-c3cccc4sc(N)nc34)c(F)c3nc(OC[C@@]45CCCN4C[C@H](F)C5)nc1c23` [Example 24, 4-(10-((R)-1-(2-aminopyridin-3-yl)ethyl)-4-fluoro-2-(((2R,7aS)-2-fluorotetrahydro-1H-pyrrolizin-7a(5H)-yl)methoxy)-9,10-dihydro-8H-7-oxa-1,3,6,10-tetraazacyclohepta[de]naphthalen-5-yl)benzo[d]thiazol-2-amine], the concentration for half-maximal inhibition (IC50) with HPAC cells is no less than 2000 nM.
